Measurements from PubChem BioAssay (NCI).
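Following 48 hours of exposure in 96-well plates, responses at five concentrations were used to interpolate endpoints linearly. At the TGI there is no net growth.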

Assays:
Experiment in all cases: NCI-60 cell line screen, 48 h
MOLT-4 leukemia = system: MOLT-4 leukemia
UO-31 renal = system: UO-31 renal
OVCAR-5 ovarian = system: OVCAR-5 ovarian
ACHN renal = system: ACHN renal
MALME-3M melanoma = system: MALME-3M melanoma
BT-549 breast = system: BT-549 breast
HCT-116 colon = system: HCT-116 colon
SF-295 CNS = system: SF-295 CNS
NCI-H460 lung = system: NCI-H460 lung
NCI-H226 lung = system: NCI-H226 lung
MDA-MB-435 = system: MDA-MB-435
NCI-H522 lung = system: NCI-H522 lung
CAKI-1 renal = system: CAKI-1 renal
K-562 leukemia = system: K-562 leukemia
TK-10 renal = system: TK-10 renal
SF-268 CNS = system: SF-268 CNS
KM12 colon = system: KM12 colon
UACC-62 melanoma = system: UACC-62 melanoma
SR leukemia = system: SR leukemia
SNB-75 CNS = system: SNB-75 CNS
RPMI-8226 leukemia = system: RPMI-8226 leukemia
DU-145 prostate = system: DU-145 prostate
RXF 393 renal = system: RXF 393 renal
SW-620 colon = system: SW-620 colon
OVCAR-3 ovarian = system: OVCAR-3 ovarian
A549 NSCLC = system: A549 NSCLC
T-47D breast = system: T-47D breast
MDA-N = system: MDA-N
HCC-2998 colon = system: HCC-2998 colon
IGROV1 ovarian = system: IGROV1 ovarian
SK-MEL-2 melanoma = system: SK-MEL-2 melanoma
SNB-19 CNS = system: SNB-19 CNS
EKVX NSCLC = system: EKVX NSCLC
OVCAR-8 ovarian = system: OVCAR-8 ovarian
CCRF-CEM leukemia = system: CCRF-CEM leukemia
U251 CNS = system: U251 CNS
LOX IMVI melanoma = system: LOX IMVI melanoma
MDA-MB-231 breast = system: MDA-MB-231 breast
NCI/ADR-RES ovarian = system: NCI/ADR-RES ovarian
HOP-62 NSCLC = system: HOP-62 NSCLC
SK-MEL-28 melanoma = system: SK-MEL-28 melanoma
UACC-257 melanoma = system: UACC-257 melanoma
M14 melanoma = system: M14 melanoma
SK-OV-3 ovarian = system: SK-OV-3 ovarian
HCT-15 colon = system: HCT-15 colon
SF-539 CNS = system: SF-539 CNS
COLO 205 colon = system: COLO 205 colon
SK-MEL-5 melanoma = system: SK-MEL-5 melanoma
A498 renal = system: A498 renal
OVCAR-4 ovarian = system: OVCAR-4 ovarian
PC-3 prostate = system: PC-3 prostate
786-0 renal = system: 786-0 renal
NCI-H23 lung = system: NCI-H23 lung
SN12C renal = system: SN12C renal
MCF7 breast = system: MCF7 breast

Measured: TGI

COC(=O)[C@]12CSC[C@H]1C[C@H](c1ccccc1OC)N2
> 100 µM: all assays above
